The values that follow are results of earlier work, collected in patent US20100280975A1, “SYSTEMS FOR CLINICAL TRIALS” (WisTa Laboratories Ltd., priority 2007, published 2010).

For this data set the following is noted: placebo arm improved 3.2 units from baseline ADAS-cog; cited from earlier work.

Regarding `COCCOC(=O)C1=C(C)NC(C)=C(C(=O)OC(C)C)C1c1cccc(C#N)c1Cl` (stereo not shown) [MEM-1003], the “efficacy in clinical trial” value is listed as “failed to demonstrate efficacy”.
